Measured values as given in US9763923B2, “Composition for reducing senescence of cell or subject including BRAF inhibitor and use thereof” (Samsung Electronics Co., Ltd., priority 2015, dated 2017).

What was measured:
Format in all cases: cell-based
[1] = tested on: senescent human dermal fibroblast (HDF) M11 cells; assay: Relative proliferation rate of senescent cells (SYBR Green I DNA quantification); conditions: 5 μM, about 3 weeks, vs DMSO negative control
Procedure: (§1) In order to examine whether senescent cells proliferate in response to treatment with BRAF inhibitors, human dermal fibroblast (HDF) M11 cells taken from a child are cultured in Dulbecco's Modified Eagle's Medium (DMEM) containing a high concentration of glucose, glutamine, and pyruvate, and 10% (v/v) fetal bovine serum (FBS), and 1× penicillin/streptomycin at about 37° C. and 5% CO2 atmosphere, thereby obtaining senescent cells. As for the senescent cells, cells that are passaged 35 times and whose doubling time is about 10 days or longer are used.
The prepared senescent cells are inoculated at a density of 1000 cells/well in a 96-well plate. The BRAF inhibitor is added to the inoculated cells at a final concentration of 5 μM. SB590885, vemurafenib (PLX4032, RG7204), TAK-632, CEP-32496, GDC-0879, PLX-4720, ZM 336372, Sorafenib tosylate, Sorafenib, GW5074, Dabrafenib (GSK2118436), AZ 628, RAF265 (CHIR-265), and NVP-BHG712 are used as BRAF inhibiting drugs. Cells treated with dimethyl sulfoxide (DMSO) (Sigma-Aldrich) alone are used as a negative control group. The medium is replaced with a fresh medium containing the drug or DMSO alone once every four days. About 3 weeks after initial addition of the drug, 0.1% (w/v) SYBR Green I (Life Technologies, Cat. No. S-7563) is used to quantify DNA, and the number of cells is calculated from the DNA quantity measured.
The number of the senescent cells in the drug-treated group is compared to the number of the cells in the negative control group so as to calculate a relative proliferation rate. The relative proliferation rates of senescent cells treated with BRAF inhibitors to that of the negative control group are shown in FIG. 1.
The senescent cells prepared as described in 1 are inoculated at a density of 1000 cells/well in a 96-well plate. […]
Then, SYBR Green I (Life Technologies, Cat. No. S-7563) is used to quantify DNA in the senescent cells thus cultured, and the number of cells is calculated from the DNA quantity measured. […]

[2] = tested on: senescent human dermal fibroblast (HDF) M11 cells; assay: Lipofuscin accumulation by autofluorescence (FACS); conditions: 0.1 μM, about 3 weeks, vs DMSO
Procedure: as §1
(§2) As described in 1, 0.1 μM SB590885 is added to the prepared senescent cells, which are cultured in the presence of SB590885 for about 3 weeks. Cells treated with DMSO (Sigma-Adrich) alone are used as a negative control group.
As lipofuscin in senescent cells emits autofluorescence, accumulation of lipofuscin is analyzed by measuring the fluorescent radiation having a wavelength of 520 nm while irradiating the senescent cells with rays having a wavelength at about 488 nm using a FACSCaliber (Beckton Dickson). A relative autofluorescence ratio of the senescent cells cultured in the presence of SB590885 to the negative control group is calculated.
As described in 1, 0.1 μM TAK-632 is added to the prepared senescent cells, which are cultured in the presence of TAK-632 for about 3 weeks. Cells treated with DMSO (Sigma-Adrich) alone are used as a negative control group.
As described in 3(2), autofluorescence in the senescent cells is measured and a relative autofluorescence ratio of the senescent cells cultured in the presence of TAK-632 to the negative control group is calculated.
As described in 1, 0.1 μM vemurafenib is added to the prepared senescent cells, which are cultured in the presence of vemurafenib for about 3 weeks. Cells treated with DMSO (Sigma-Adrich) alone are used as a negative control group.
As described in 3.(2), autofluorescence in the senescent cells is measured and a relative autofluorescence ratio of the senescent cells cultured in the presence of vemurafenib to the negative control group is calculated.

[3] = tested on: senescent human dermal fibroblast (HDF) M11 cells; assay: Mitochondrial reactive oxygen species (MitoSOX Red); conditions: 0.1 μM, about 3 weeks, vs DMSO
Procedure: as §1, §2
In order to measure mitochondrial function in senescent cells, the amount of reactive oxygen species (ROS) in the prepared senescent cells is measured using a MitoSOX™ Red Mitochondrial Superoxide indicator (Life technologies). A relative ROS amount of the senescent cells cultured in the presence of SB590885 to that of the negative control group is shown in FIG. 4B. […] Accordingly, SB590885 inhibits mitochondrial damage in senescent cells.
As described in 3(2), the amount of ROS in the senescent cells is measured. A relative ROS ratio of the senescent cells cultured in the presence of TAK-632 to the negative control group is calculated.
As described in 3.(2), the amount of ROS in the senescent cells is measured. A relative ROS ratio of the senescent cells cultured in the presence of vemurafenib to the negative control group is calculated.

[4] = tested on: senescent human dermal fibroblast (HDF) M11 cells; assay: Lysosome accumulation (LysoTracker Blue DND-22, FACS); conditions: 0.1 μM, about 3 weeks, vs DMSO
Procedure: as §1, §2
In order to measure lysosome accumulation in senescent cells, the prepared senescent cells are stained using a LysoTracker®Blue DND-22 (Life Technologies, Cat. No. L-7525). The amount of lysosome is quantified by measuring the fluorescent radiation having a wavelength of 422 nm while irradiating the stained senescent cells with rays having a wavelength at about 373 nm using a FACSCaliber (Beckton Dickson). The amount (%) of lysosome in the cells cultured in the presence of SB590885 relative to that of the negative control group is shown in FIG. 4C.
As described in 3(2), the amount of lysosomes in senescent cells is measured and the amount (%) of lysosome in the cells cultured in the presence of TAK-632 relative to that of the negative control group is shown in FIG. 5C.
As described in 3.(2), the amount of lysosomes in senescent cells is measured and the amount (%) of lysosome in the cells cultured in the presence of vemurafenib relative to that of the negative control group is shown in FIG. 6C.

Compound	proliferation rate higher than the negative control group [1]	decrease in lipofuscin compared to negative control group [2]	decrease in the amount of ROS compared to negative control group [3]	decrease in lysosome accumulation compared to negative control group [4]	autofluorescence relative to negative control group [2]	ROS relative to negative control group [3]
N#Cc1c(Oc2ccc(F)c(NC(=O)Cc3cccc(C(F)(F)F)c3)c2)ccc2nc(NC(=O)C3CC3)sc12 [TAK-632]	about 30%	~48%	~40%	~40%		
CCCS(=O)(=O)Nc1ccc(F)c(C(=O)c2c[nH]c3ncc(-c4ccc(Cl)cc4)cc23)c1F [vemurafenib]	about 30%	about 60%	about 40%	about 40%		
CN(C)CCOc1ccc(-c2nc(-c3ccncc3)c(-c3ccc4c(c3)CC/C4=N\O)[nH]2)cc1 [SB590885]	about 30%	70%	about 60%	about 25%	about 28%	about 38%
